From patent US9340577B2, “HLA binding motifs and peptides and their uses” (priority 1992, dated 2016)
No end group written: not given here.

Assays:
A2.1 HLA molecules = A2.1 HLA molecules (Homo sapiens, UniProt P04439, D140Y/D185E/D98H/E176V/E277Q/G131W/G231S/I119V/I121R/I166T/I218V/L300P/L318F/N151K/N90K/P208A/P217A/Q86G/Q94H/R138H/R169H/T345S); type: binding; parameters: A*0201 / A2.1 Binding / A2 Bind. / A2 / A2.1 (binding capacity): scale not given here
HLA-A*0201 (HLA-A2.1) = HLA-A*0201 (HLA-A2.1) (Homo sapiens, UniProt P04439, D140Y/D185E/D98H/E176V/E277Q/G131W/G231S/I119V/I121R/I166T/I218V/L300P/L318F/N151K/N90K/P208A/P217A/Q86G/Q94H/R138H/R169H/T345S); assay: biochemical; type: binding
DRB5*0101 = DRB5*0101 (Homo sapiens, UniProt P01903+Q30154); assay: biochemical
DRB1*0901 = DRB1*0901 (Homo sapiens, UniProt P01903+P01911, A100R/A103E/D57H/D86V/F55Y/F60I/F76Y/I96F/K127E/L162R/M171V/P40D/Q125H/Q99R/R33Q/R42F/S133A/S66N/T210M/V115G/W38K/Y107V/Y59G/Y89S); assay: biochemical; type: binding
DRB1*1501 = DRB1*1501 (Homo sapiens, UniProt P01903+P01911); assay: biochemical; type: binding
DR7 (DRB1*0701) = DR7 (DRB1*0701) (Homo sapiens, UniProt P01903+P01911, A100R/A102G/A103Q/D57E/D86V/E43K/F76Y/K127E/L162R/M171V/P40G/Q125H/Q99D/R33Q/R42Y/R54Q/S133A/S66F/T210M/V115G/Y107V/Y59L/Y89S); assay: biochemical; type: binding
DRB1*1101 = DRB1*1101 (Homo sapiens, UniProt P01903+P01911, A100R/A169T/A87E/I96F/K41T/L162R/M171V/P40S/Q125H/Q178H/Q39Y/Q99D/R42S/S66Y/T262R/V115G/W38E); assay: biochemical; settings: Binding affinity DRB1 *1101
Chain of DRB1*1101 (P01903 26-254 limits assumed, other chains not shown): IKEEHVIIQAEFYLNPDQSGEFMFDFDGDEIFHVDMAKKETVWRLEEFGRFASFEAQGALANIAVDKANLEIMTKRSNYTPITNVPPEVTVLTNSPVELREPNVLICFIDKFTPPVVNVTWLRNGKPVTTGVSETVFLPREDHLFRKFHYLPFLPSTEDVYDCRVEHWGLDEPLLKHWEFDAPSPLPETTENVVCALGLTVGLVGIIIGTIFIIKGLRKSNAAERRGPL

DRB1*0802 = DRB1*0802 (Homo sapiens, UniProt P01903+P01911, A100R/A103L/A169T/F76Y/H45Y/I96F/K41T/L162R/M171V/P40S/Q125H/Q178H/Q39Y/Q99D/R218S/R42G/S66Y/V115G/W38E); assay: biochemical; type: binding
DR4w4 (DRB1*0401) = DR4w4 (DRB1*0401) (Homo sapiens, UniProt P01903+P01911, A100K/A169T/F76Y/I96L/K127E/L162R/M171V/N62H/P40V/Q125Y/R42H/S133A/S149N/S66Y/V115G/V209L/W38E); assay: biochemical; type: binding
DRB1*1302 = DRB1*1302 (Homo sapiens, UniProt P01903+P01911, A100E/A169T/K41T/L162R/M171V/P40S/Q125H/Q178H/Q39Y/Q99D/R42S/S66N/T262R/V115G/W38E/Y61H); assay: biochemical; type: binding
Chain of DRB1*1302 (P01903 26-254 limits assumed, other chains not shown): as above

HLA-A3.2 (A*0301) = HLA-A3.2 (A*0301) (Homo sapiens, UniProt P04439); assay: biochemical; type: binding; settings: Table 164, MAGE peptides; binding value to HLA-A3.2, no unit given
HLA-A11 (A*1101) = HLA-A11 (A*1101) (Homo sapiens, UniProt P04439, A114D/D185E/E176A/F33Y/L180Q/S129P/T187R); assay: biochemical; type: binding; parameters: A11: unit not given here

| Sequence | A2 Bind. (A2.1 HLA molecules) | binding to HLA-A2.1 (column 3; no allele head shown for these rows) (HLA-A*0201 (HLA-A2.1)) | also measured |
| --- | --- | --- | --- |
| KVADLVGFLLL | 0.0200 | 0.020 |  |
| LHLLSNDMCARAYSE [Peptide 68.0140] |  |  | IC50 (DRB5*0101; Binding affinity DRB5 *0101): > 20 µM; IC50 (DRB1*0901): > 20 µM; IC50 (DRB1*1501): > 20 µM; IC50 (DR7 (DRB1*0701)): > 20 µM; IC50 (DRB1*1101): > 20 µM; IC50 (DRB1*0802): > 20 µM |
| LLGDNQIMP |  | 0.0001 | A2.1 relative binding (ratio of binding of test peptide relative to standard peptide) (A2.1 HLA molecules): 0.0001 |
| LLGDNQIMV | 0.0430 | 0.043 |  |
| LMLGTLEEV | 0.1300 | 0.13 |  |
| LMVTVYYGV |  |  | A2 (A2.1 HLA molecules): 0.4400; IC50 (HLA-A*0201 (HLA-A2.1)): 0.0033 µM |
| QLVFGIELMEV | 0.3400 | 0.34 |  |
| QMMPKTGFLV | 0.0500 | 0.050 |  |
| QYIKANSSFIGITE |  |  | IC50 (DR4w4 (DRB1*0401)): 0.013 µM |
| SEVYDFAFADLTVVY [Peptide 85.0024] |  |  | IC50 (DRB1*1302): > 20 µM; IC50 (DRB1*1101): > 20 µM |
| SLHCKPEEA | 0.0130 |  | A2.1 relative binding (ratio of binding of test peptide relative to standard peptide) (A2.1 HLA molecules): 0.013; A3.2 (HLA-A3.2 (A*0301)): <0.0002; A2.1 (HLA-A*0201 (HLA-A2.1)): 0.013; A11 (HLA-A11 (A*1101)): 0 |
| SMHCKPEEV | 0.0180 | 0.018 |  |
| TAEYGDKWLDAKSTWYGKPT [Peptide 620.02] |  |  | IC50 (DRB5*0101; DRB5*0101): 10 µM |
| VMIAMEGGHV | 0.0530 | 0.053 |  |
| WEELSVMEV |  | 0 | A2.1 relative binding (ratio of binding of test peptide relative to standard peptide) (A2.1 HLA molecules): 0 |
| WMELSVMEV | 0.0410 | 0.041 |  |
| YEFLWGPRA |  | 0 | A2.1 relative binding (ratio of binding of test peptide relative to standard peptide) (A2.1 HLA molecules): 0 |
| YLLPRRGPRL |  |  | A2 (A2.1 HLA molecules): 0.0730 |
| YLPSALNPV [listing 1 of 2 here] | 0.3200 |  |  |
| YLPSALNPV [listing 2 of 2 here] |  |  | A2.1 relative binding (ratio of binding of test peptide relative to standard peptide) (A2.1 HLA molecules): 0.32 |
| YLQLVFGIEV | 0.3700 | 0.37 |  |
| YLYGVGSAV | 0.1600 |  |  |
| YLYRLNFCL | 0.7200 |  | A2.1 Binding (A2.1 HLA molecules): 0.72 |
| YMFLWGPRV [listing 1 of 2 here] | 0.2200 | 0.22 |  |
| YMFLWGPRV [listing 2 of 2 here] |  |  | A2.1 relative binding (ratio of binding of test peptide relative to standard peptide) (A2.1 HLA molecules): 0.22 |
| YMLDLQPET | 1.4000 |  | A2.1 relative binding (ratio of binding of test peptide relative to standard peptide) (A2.1 HLA molecules): 1.4 |
| YMLDLQPEV [listing 1 of 2 here] | 1.9000 |  |  |
| YMLDLQPEV [listing 2 of 2 here] |  |  | A2.1 relative binding (ratio of binding of test peptide relative to standard peptide) (A2.1 HLA molecules): 1.9 |
